The term IC50 denotes the midpoint of a concentration-inhibition curve.

The structures appear in SMILES notation. Structures can show the parent of a compound that is named as a salt.

The subject of one experiment is XBP1s-luc 293 LUC. The experiment in a line: cellular PD assay, XBP1s-LUC reporter (Example 903). As to conditions: Table 1; read-out: XBP1s-luc 293 LUC (IC50). The experiment is classed as cell-based. In a few lines: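 Cellular IRE1α pathway activity was quantified from the luciferase signal of an XBP1-Luc reporter, where the luciferase fusion is in frame and expressed only from the spliced XBP1 transcript.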
Take `CCc1cnn(-c2cccc3c(Oc4ncccc4-c4ccnc(N[C@H]5CCCNC5)n4)c(C)ccc23)c1` [Example 290, (S)-4-(2-((5-(4-Ethyl-1H-pyrazol-1-yl)-2-methylnaphthalen-1-yl)oxy)pyridin-3-yl)-N-(piperidin-3-yl)pyrimidin-2-amine]: the IC50 was determined as 409 nM.

On to `Cc1ccc2c(NC(=O)C3CC3C(C)C)cccc2c1Oc1ncccc1-c1ccnc(N[C@H]2CCCNC2)n1` (single isomer, unassigned) [Example 230], for which the concentration for half-maximal inhibition (IC50) came to 80 nM. Consider `Cc1ccc2c(NS(=O)(=O)Cc3ccccc3CF)cccc2c1Oc1ncccc1-c1ccnc(N[C@H]2CCCNC2)n1` [Example 170, (S)-1-(2-(Fluoromethyl)phenyl)-N-(6-methyl-5-((3-(2-(piperidin-3-ylamino)pyrimidin-4-yl)pyridin-2-yl)oxy)naphthalen-1-yl)methanesulfonamide], for which the IC50 came out at 15 nM. For the compound `Cc1ccc2c(NS(=O)(=O)CC3CCCO3)cccc2c1Oc1ncccc1-c1ccnc(N[C@H]2CCCNC2)n1` (stereo partly drawn) [Example 141, N-(6-Methyl-5-((3-(2-((S)-piperidin-3-ylamino)pyrimidin-4-yl)pyridin-2-yl)oxy)naphthalen-1-yl)-1-(tetrahydrofuran-2-yl)methanesulfonamide], the 50% inhibitory concentration (IC50) stood at 457 nM. With `Cc1ccc2c(NS(=O)(=O)CC(C)C)c(F)ccc2c1Oc1ncccc1-c1ccnc(N[C@H]2CCCNC2)n1` [Example 279, (S)—N-(2-Fluoro-6-methyl-5-((3-(2-(piperidin-3-ylamino)pyrimidin-4-yl)pyridin-2-yl)oxy)naphthalen-1-yl)-2-methylpropane-1-sulfonamide], the IC50 stood at 24.7 nM.

For the compound `Cc1ccc2c(NS(=O)(=O)Cc3ccccc3C(F)(F)F)c(F)ccc2c1Oc1ncccc1-c1ccnc(N[C@H]2CCCNC2)n1` [Example 392, (S)—N-(2-Fluoro-6-methyl-5-((3-(2-(piperidin-3-ylamino)pyrimidin-4-yl)pyridin-2-yl)oxy)naphthalen-1-yl)-1-(2-(trifluoromethyl)phenyl)methanesulfonamide], the IC50 is 6.32 nM. For the compound `Cc1ccc2c(NC(=O)C3CC3)c(F)ccc2c1Oc1ncccc1-c1ccnc(N[C@@H]2CNC[C@H](C)C2)n1` [Example 310, N-(2-Fluoro-6-methyl-5-((3-(2-(((3S,5R)-5-methylpiperidin-3-yl)amino)pyrimidin-4-yl)pyridin-2-yl)oxy)naphthalen-1-yl)cyclopropanecarboxamide], the IC50 amounted to 135 nM. For `Cc1ccc2c(NS(=O)(=O)Cc3ccccc3Cl)cccc2c1Oc1ncccc1-c1ccnc(N[C@H]2CCCNC2)n1` [Example 135, (S)-1-(2-Chlorophenyl)-N-(6-methyl-5-((3-(2-(piperidin-3-ylamino)pyrimidin-4-yl)pyridin-2-yl)oxy)naphthalen-1-yl)methanesulfonamide], the half-inhibitory concentration (IC50) amounted to 10 nM. On to `CCCS(=O)(=O)Nc1c(C)ccc2c(Oc3ncccc3-c3ccnc(N[C@H]4CCCNC4)n3)c(C)ccc12` [Example 285, (S)—N-(2,6-Dimethyl-5-((3-(2-(piperidin-3-ylamino)pyrimidin-4-yl)pyridin-2-yl)oxy)Naphthalen-1-yl)propane-1-sulfonamide], for which the IC50 stood at 71 nM. For the compound `CO[C@H]1CNC[C@@H](Nc2nccc(-c3cccnc3Oc3c(C)ccc4c(NS(=O)(=O)Cc5ccccc5)cccc34)n2)C1` [Example 161, N-(5-((3-(2-(((3S,5R)-5-Methoxypiperidin-3-yl)amino)pyrimidin-4-yl)pyridin-2-yl)oxy)-6-methylnaphthalen-1-yl)-1-phenylmethanesulfonamide], the IC50 was 46 nM. Turning to `Cc1ccc2c(NC(=O)[C@@H]3CC34CCC4)cccc2c1Oc1ncccc1-c1ccnc(N[C@H]2CCCNC2)n1` (single isomer, unassigned) [Example 340], the IC50 turned out to be 17.7 nM.

In the case of `Cc1ccc2c(NC(=O)C3CCCCC3)cccc2c1Oc1ncccc1-c1ccnc(N[C@H]2CCCNC2)n1` [Example 190, (S)—N-(6-Methyl-5-((3-(2-(piperidin-3-ylamino)pyrimidin-4-yl)pyridin-2-yl)oxy)naphthalen-1-yl)cyclohexanecarboxamide], the IC50 came to 273 nM. Turning to `Cc1ccc2c(NC(=O)C3(CF)CC3)cccc2c1Oc1ncccc1-c1ccnc(N[C@H]2CCCNC2)n1` [Example 242, (S)-1-(Fluoromethyl)-N-(6-methyl-5-((3-(2-(piperidin-3-ylamino)pyrimidin-4-yl)pyridin-2-yl)oxy)naphthalen-1-yl)cyclopropane-1-carboxamide], the IC50 came to 361 nM. With `Cc1ccc2c(NC[C@@H](C)O)cccc2c1Oc1ncccc1-c1ccnc(N[C@H]2CCCNC2)n1` [Example 300, (R)-1-((6-Methyl-5-((3-(2-((S)-piperidin-3-ylamino)pyrimidin-4-yl)pyridin-2-yl)oxy)naphthalen-1-yl)amino)propan-2-ol], the IC50 came out at 55.4 nM.

For `Cc1ccc2c(NC(=O)[C@H]3CC3(C)C)cccc2c1Oc1ncccc1-c1ccnc(N[C@H]2CCCNC2)n1` (single isomer, unassigned) [Example 288], the IC50 is 185 nM. As for `CC[C@H](O)CNc1cccc2c(Oc3ncccc3-c3ccnc(N[C@H]4CCCNC4)n3)c(C)ccc12` [Example 313, (S)-1-((6-Methyl-5-((3-(2-((S)-piperidin-3-ylamino)pyrimidin-4-yl)pyridin-2-yl)oxy)naphthalen-1-yl)amino)butan-2-ol], the IC50 was 148 nM. Turning to `CCCS(=O)(=O)Nc1cccc2c(Oc3ncccc3-c3ccnc(N[C@@H]4CNC[C@H](C)C4)n3)c(C)ccc12` [Example 361, N-(6-Methyl-5-((3-(2-(((3S,5R)-5-methylpiperidin-3-yl)amino)pyrimidin-4-yl)pyridin-2-yl)oxy)naphthalen-1-yl)propane-1-sulfonamide], the concentration for half-maximal inhibition (IC50) is 85.1 nM. Consider `Cc1ccc2c(NC(=O)[C@@H]3CC34CC4)c(F)ccc2c1Oc1ncccc1-c1ccnc(N[C@H]2CCCNC2)n1` (single isomer, unassigned) [Example 380], for which the half-inhibitory concentration (IC50) was found to be 56.6 nM. The same measure, in the same setting: under `Cc1ccc2c(NCc3csc(C(C)C)n3)cccc2c1Oc1ncccc1-c1ccnc(N[C@H]2CCCNC2)n1` [Example 256, (S)-4-(2-((5-(((2-Isopropylthiazol-4-yl)methyl)amino)-2-methylnaphthalen-1-yl)oxy)pyridin-3-yl)-N-(piperidin-3-yl)pyrimidin-2-amine] stands 210 nM; under `Cc1ccc2c(NC(=O)C3CC3C(C)C)cccc2c1Oc1ncccc1-c1ccnc(N[C@H]2CCCNC2)n1` (single isomer, unassigned) [Example 229], 454 nM.

Staying with this experiment, now noted: Table 2; read-out: XBP1s-luc 293 LUC (IC50).
For the compound `Cc1nc(CS(=O)(=O)Nc2c(F)ccc3c(Oc4ncccc4-c4ccnc(N[C@@H]5CNC[C@@H](F)C5)n4)c(C)ccc23)cs1` (single isomer, unassigned) [Example 490, hydrochloride], the IC50 amounted to 4 nM. For the compound `Cc1ccc2c(NS(=O)(=O)N(C)C3CC3)c(F)ccc2c1Oc1ncccc1-c1ccnc(N[C@H]2CCCNC2)n1` [Example 440, 4-[2-[[5-[[Cyclopropyl(methyl)sulfamoyl]amino]-6-fluoro-2-methyl-1-naphthyl]oxy]-3-pyridyl]-2-[[(3S)-3-piperidyl]amino]pyrimidine hydrochloride], the concentration for half-maximal inhibition (IC50) was 26 nM. Turning to `CCC(C)CS(=O)(=O)Nc1c(F)ccc2c(Oc3ncccc3-c3ccnc(N[C@H]4CCCNC4)n3)c(C)ccc12` (mixture of isomers) [Example 409, N-(2-Fluoro-6-methyl-5-((3-(2-(((S)-piperidin-3-yl)amino)pyrimidin-4-yl)pyridin-2-yl)oxy)naphthalen-1-yl)-2-methylbutane-1-sulfonamide], the IC50 was found to be 25 nM. Still for that read-out and setting: then `Cc1ccc2c(NS(=O)(=O)CCC(F)F)c(F)ccc2c1Oc1ncccc1-c1ccnc(N[C@H]2CCCNC2)n1` [Example 398, (S)-3,3-Difluoro-N-(2-fluoro-6-methyl-5-((3-(2-(piperidin-3-ylamino)pyrimidin-4-yl)pyridin-2-yl)oxy)naphthalen-1-yl)propane-1-sulfonamide hydrochloride], with 22 nM. `Cc1ccc2c(NS(=O)(=O)C[C@@H]3CC34CC4)c(F)ccc2c1Oc1ncccc1-c1ccnc(N[C@H]2CCCNC2)n1` (single isomer, unassigned) [Example 473, hydrochloride]: the IC50 came out at 76 nM.

For `Cc1ccc2c(N[C@H]3CCCC[C@@H]3O)cccc2c1Oc1ncccc1-c1ccnc(N[C@H]2CCCNC2)n1` (single isomer, unassigned) [Example 447, hydrochloride], the 50% inhibitory concentration (IC50) was 146 nM. In the case of `Cc1c(F)c(NS(=O)(=O)CCC(F)(F)F)c2ccccc2c1Oc1ncccc1-c1ccnc(N[C@H]2CCCNC2)n1` [Example 482, (S)-3,3,3-Trifluoro-N-(2-fluoro-3-methyl-4-((3-(2-(piperidin-3-ylamino)pyrimidin-4-yl)pyridin-2-yl)oxy)naphthalen-1-yl)propane-1-sulfonamide], the IC50 stood at 65 nM. In the case of `Cc1ccc2c(NCC(=O)C3CC3)cccc2c1Oc1ncccc1-c1ccnc(N[C@H]2CCCNC2)n1` [Example 459, (S)-1-Cyclopropyl-2-((6-methyl-5-((3-(2-(piperidin-3-ylamino)pyrimidin-4-yl)pyridin-2-yl)oxy)naphthalen-1-yl)amino)ethanone hydrochloride], the IC50 came to 312 nM. Take `Cc1ccc2c(NS(=O)(=O)CC3CC(F)(F)C3)c(F)ccc2c1Oc1ncccc1-c1ccnc(N[C@H]2CCCNC2)n1` [Example 433, (S)-1-(3,3-Difluorocyclobutyl)-N-(2-fluoro-6-methyl-5-((3-(2-(piperidin-3-ylamino)pyrimidin-4-yl)pyridin-2-yl)oxy)naphthalen-1-yl)methanesulfonamide]: the IC50 came to 76 nM.

The experiment is the same for the next values; noted with them: read-out: XBP1s-luc 293 LUC (IC50).
For the compound `Cc1ccc2c(Oc3ncccc3-c3ccnc(N[C@H]4CCCNC4)n3)c(C)ccc2c1NC[C@H](O)C(F)(F)F` [Example 319, (S)-3-((2,6-Dimethyl-5-((3-(2-((S)-piperidin-3-ylamino)pyrimidin-4-yl)pyridin-2-yl)oxy)naphthalen-1-yl)amino)-1,1,1-trifluoropropan-2-ol], the IC50 amounted to 48.2 nM.

Values taken from patent US10968203B2, “Pyrimidinyl-pyridyloxy-naphthyl compounds and methods of treating IRE1-related diseases and disorders” (Genentech, Inc., priority 2017, dated 2021).
